Counter-ions that a name gives are not always drawn.
Columns and labels:
[1] = molecular target: GCD (recombinant gelatinase A catalytic domain); assay: Inhibition of recombinant gelatinase A catalytic domain (GCD), thiopeptolide substrate; type: biochemical; conditions: thiopeptolide substrate Ac-Pro-Leu-Gly-thioester-Leu-Leu-Gly-OEt
[2] = molecular target: T1, SCD (stromelysin-1 catalytic domain) (Homo sapiens, UniProt P08254); assay: Inhibition of stromelysin-1 catalytic domain (SCD), thiopeptolide substrate; type: biochemical; conditions: thiopeptolide substrate Ac-Pro-Leu-Gly-thioester-Leu-Leu-Gly-OEt
T1 construct: SCD (stromelysin-1 catalytic domain)
Protocol: IC50 values were determined using a thiopeptolide substrate, Ac-Pro-Leu-Gly-thioester-Leu-Leu-Gly-OEt (Ye Q.-Z., Johnson L. L., Hupe D. J. and Baragi V., "Purification and Characterization of the Human Stromelysin Catalytic Domain Expressed in Escherichia coli", Biochemistry,1992;31:11231-11235).

[3] = tested on: experimental allergic encephalomyelitis (EAE); conditions: in vivo; cited from earlier work
[4] = tested on: pig articular cartilage; conditions: cited from earlier work
[5] = tested on: bovine nasal cartilage; conditions: cited from earlier work

T1 sequence (P08254 100-272 limits assumed): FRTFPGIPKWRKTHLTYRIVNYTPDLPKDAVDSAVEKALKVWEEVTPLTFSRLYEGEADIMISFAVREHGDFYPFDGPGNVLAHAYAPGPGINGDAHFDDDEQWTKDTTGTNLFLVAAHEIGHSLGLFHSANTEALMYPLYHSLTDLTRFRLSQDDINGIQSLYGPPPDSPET

Row | Compound | IC50 [1] [µM] | IC50 [2] [µM] | development or clinical expression of EAE [3] | formation of collagen fragments and proteoglycan fragments [4] | formation of collagen fragments and proteoglycan fragments [5]
1 | O=C(O)CCNS(=O)(=O)c1ccc(N2CCC(c3ccccc3)CC2)cc1 [Example 3, 3-[4-(4-Phenyl-piperidin-1-yl)-benzenesulfonylamino]-propionic acid] | 4.8 | 1.24 |  |  | 
2 | O=C(O)[C@H](Cc1ccccc1)NS(=O)(=O)c1ccc(N2CCN(c3cccc(O)c3)CC2)cc1 [Example 17, (S)-2-{4-[-4-(3-Hydroxy-phenyl)-piperazin-1-yl]-benzenesulfonylamino}-3-phenyl-propionic acid hydrobromide] | 0.18 | 0.077 |  |  | 
3 | O=C(O)[C@H](Cc1ccc(O)cc1)NS(=O)(=O)c1ccc(N2CCC(c3ccccc3)CC2)cc1 [Example 14, (S)-3-(4-Hydroxy-phenyl)-2-[4-(4-phenyl-piperidin-1-yl)-benzenesulfonylamino]-propionic acid] | 0.13 | 0.015 |  |  | 
4 | CNC(=O)[C@H](Cc1c[nH]c2ccccc12)NC(=O)[C@@H](CC(=O)NO)CC(C)C [GM6001] |  |  | suppressed the development or reversed the clinical expression of experimental allergic encephalomyelitis (EAE) in a dose dependent manner |  | 
5 | O=C(O)[C@H](Cc1ccccc1)NS(=O)(=O)c1ccc(N2CCN(c3ccccc3)CC2)cc1 [Example 15, (S)-3-Phenyl-2-[4-(4-phenyl-piperazin-1-yl)-benzenesulfonylamino]-propionicacid] | 0.088 | 0.021 |  |  | 
6 | O=C(O)[C@@H](Cc1ccccc1)NS(=O)(=O)c1ccc(N2CCC(c3ccccc3)CC2)cc1 [Example 7, (R)-3-Phenyl-2-[4-(4-phenyl-piperidin-1-yl)-benzenesulfonylamino]-propionic acid] | 0.12 | 0.012 |  |  | 
7 | COc1cccc(N2CCN(c3ccc(S(=O)(=O)N[C@@H](Cc4ccccc4)C(=O)O)cc3)CC2)c1 [Example 16, (S)-2-{4-[-4-(3-Methoxy-phenyl)-piperazin-1-yl]-benzenesulfonylamino}-3-phenyl-propionic acid] | 0.33 | 0.062 |  |  | 
8 | CC(C)C[C@H](NS(=O)(=O)c1ccc(N2CCC(c3ccccc3)CC2)cc1)C(=O)O [Example 5, (S)-4-Methyl-2-[4-(4-phenyl-piperidin-1-yl)-benzenesulfonylamino]-pentanoic acid] | 0.084 | 0.011 |  |  | 
9 | CC(C)C[C@@H](NS(=O)(=O)c1ccc(N2CCC(c3ccccc3)CC2)cc1)C(=O)O [Example 4, (R)-4-Methyl-2-[4-(4-phenyl-piperidin-1-yl)-benzenesulfonylamino]-pentanoic acid] | 0.93 | 0.036 |  |  | 
10 | O=C(O)[C@H](Cc1ccccc1)NS(=O)(=O)c1ccc(N2CCC(c3ccccc3)CC2)cc1 [Example 6, (S)-3-Phenyl-2-[4-(4-phenyl-piperidin-1-yl)-benzenesulfonylamino]-propionic acid] | 0.22 |  |  |  | 
11 | COc1ccc(N2CCN(c3ccc(S(=O)(=O)N[C@@H](Cc4ccccc4)C(=O)O)cc3)CC2)cc1 [Example 18, (S)-2-{4-[-4-(4-Methoxy-phenyl)-piperazin-1-yl]-benzenesulfonylamino}-3-phenyl-propionic acid] | 0.033 |  |  |  | 
12 | O=C(O)C(CCCc1ccccc1)NS(=O)(=O)c1ccc(N2CCC(c3ccccc3)CC2)cc1 (racemic) [Example 9, (±)-5-Phenyl-2-[4-(4-phenyl-piperidin-1-yl)-benzenesulfonylamino]-pentanoic acid] | 0.4 | 0.3 |  |  | 
13 | O=C(O)[C@H](Cc1c[nH]c2ccccc12)NS(=O)(=O)c1ccc(N2CCC(c3ccccc3)CC2)cc1 [Example 8, (S)-3-(1H-Indol-3-yl)-2-[4-(4-phenyl-piperidin-1-yl)-benzenesulfonylamino]-propionic acid] | 0.32 | 0.01 |  |  | 
14 | CC(C)CN(CC(=O)O)S(=O)(=O)c1ccc(N2CCC(c3ccccc3)CC2)cc1 [Example 11, {Isobutyl-[4-(4-phenyl-piperidin-1-yl)-benzenesulfonyl]amino}-acetic acid] | 3.3 | 0.17 |  |  | 
15 | O=C(CNS(=O)(=O)c1ccc(N2CCC(c3ccccc3)CC2)cc1)NO [Example 2, N-Hydroxy-2-[4-(4-phenyl-piperidin-1-yl)-benzenesulfonylamino]-acetamide] | 0.81 |  |  |  | 
16 | O=C(O)[C@H](Cc1ccc(OCc2ccccc2)cc1)NS(=O)(=O)c1ccc(N2CCC(c3ccccc3)CC2)cc1 [Example 13, (S)-3-(4-Benzyloxy-phenyl)-2-[4-(4-phenyl-piperidin-1-yl)-benzenesulfonylamino]-propionic acid] | 5.3 | 0.19 |  |  | 
17 | O=C(O)CNS(=O)(=O)c1ccc(N2CCC(c3ccccc3)CC2)cc1 [Example 1, [4-(4-Phenyl-piperidin-1-yl)-benzenesulfonylamino]-acetic acid] | 0.21 |  |  |  | 
18 | TIMP-1: natural endogenous inhibitors of MMPs (TIMPS) |  |  |  | prevented the formation of collagen fragments, but not proteoglycan fragments | prevented the formation of collagen fragments, but not proteoglycan fragments
19 | O=C(O)CNS(=O)(=O)c1ccc(N2CCN(c3ccccc3)CC2)cc1 [Example 10, [4-(4-Phenyl-piperazin-1-yl)-benzenesulfonylamino]-acetic acid] | 0.5 | 0.05 |  |  | 
20 | O=C(O)[C@H](Cc1ccccc1)NS(=O)(=O)c1ccc(N2CCC(Cc3ccccc3)CC2)cc1 [Example 12, (S)-2-[4-(4-Benzyl-piperidin-1-yl)-benzenesulfonylamino]-3-phenyl-propionicacid] | 3.2 | 0.6 |  |  | 
